From patent US10550105B2 (Ribon Therapeutics Inc., priority 2018, dated 2020)

Molecular target: PARP7 (Homo sapiens (Human), UniProt Q7Z3E1)
Experiment: Enzymatic assay for inhibition of PARP7: TR-FRET displacement of biotinylated Probe A from the TIPARP active site
Assay type: binding
Conditions: Table A-1
In short: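 Displacement of biotinylated Probe A from TIPARP was measured as the 665/615 nm time-resolved FRET ratio (excitation 320 nm, 90 μs delay) after a further 30 min at 25 °C. Inhibition across compound concentrations was fitted by dose-response regression, with the Hill slope free or fixed at 1 (3-parameter fit).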

PARP7, sequence (Q7Z3E1 whole entry): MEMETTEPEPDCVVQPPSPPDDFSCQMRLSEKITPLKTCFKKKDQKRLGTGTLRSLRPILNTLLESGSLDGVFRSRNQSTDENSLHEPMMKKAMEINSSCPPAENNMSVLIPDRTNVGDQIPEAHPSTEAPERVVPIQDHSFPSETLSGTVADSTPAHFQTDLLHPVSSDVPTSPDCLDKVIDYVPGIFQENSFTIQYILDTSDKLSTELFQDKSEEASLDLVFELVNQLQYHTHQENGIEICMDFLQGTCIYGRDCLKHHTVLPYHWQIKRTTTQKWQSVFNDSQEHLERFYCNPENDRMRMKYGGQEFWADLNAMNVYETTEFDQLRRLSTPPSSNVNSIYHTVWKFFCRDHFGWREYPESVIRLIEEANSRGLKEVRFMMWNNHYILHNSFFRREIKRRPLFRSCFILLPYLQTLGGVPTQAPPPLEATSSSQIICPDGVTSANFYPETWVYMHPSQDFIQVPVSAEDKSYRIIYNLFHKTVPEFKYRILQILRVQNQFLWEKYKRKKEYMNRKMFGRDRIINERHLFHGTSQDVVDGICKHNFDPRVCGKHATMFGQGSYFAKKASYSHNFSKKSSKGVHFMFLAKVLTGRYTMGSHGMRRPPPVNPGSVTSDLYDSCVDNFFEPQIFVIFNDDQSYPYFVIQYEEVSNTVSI

Compound	IC50
C[C@H](COCCC(=O)N1CCN(c2ccc(C#N)cn2)CC1)Oc1cn[nH]c(=O)c1C(F)(F)F [Example 530B, 6-(4-[3-[(2R)-2-[[6-Oxo-5-(trifluoromethyl)-1,6-dihydropyridazin-4-yl]oxy]propoxy]propanoyl]piperazin-1-yl)pyridine-3-carbonitrile]	100 to 1000 nM
C[C@H](COc1cn[nH]c(=O)c1C(F)(F)F)OCCC(=O)N1CCN(c2ccc(C#N)cn2)CC1 [Example 530D, 6-[4-(3-[[(2R)-1-[[6-Oxo-5-(trifluoromethyl)-1,6-dihydropyridazin-4-yl]oxy]propan-2-yl]oxy]propanoyl)piperazin-1-yl]pyridine-3-carbonitrile]	< 100 nM
O=C(CCOCCOc1cn[nH]c(=O)c1C(F)(F)F)N1CCN(c2ncc(Cl)cn2)CC1 [Example 533, 5-(2-[3-[4-(5-Chloropyrimidin-2-yl)piperazin-1-yl]-3-oxopropoxy]ethoxy)-4-(trifluoromethyl)-2,3-dihydropyridazin-3-one]	< 100 nM
N#Cc1ccc(N2CCN(C(=O)CCO[C@H]3CC[C@H]3Nc3cn[nH]c(=O)c3C(F)(F)F)CC2)nc1 [Example 541, 6-(4-[3-[(1S,2R)-2-[[6-Oxo-5-(trifluoromethyl)-1,6-dihydropyridazin-4-yl]amino]cyclobutoxy]propanoyl]piperazin-1-yl)pyridine-3-carbonitrile]	< 100 nM
C[C@H](COCCC(=O)N1CCN(c2ncc(Cl)cn2)CC1)Oc1cn[nH]c(=O)c1C(F)(F)F [Example 543 Isomer D, (R)-5-(1-(3-(4-(5-chloropyrimidin-2-yl)piperazin-1-yl)-3-oxopropoxy)propan-2-yloxy)-4-(trifluoromethyl)pyridazin-3(2H)-one]	100 to 1000 nM
O=C(CCOCCOc1cn[nH]c(=O)c1Br)N1CCN(c2ncc(Cl)cn2)CC1 [Example 547, 4-Bromo-5-(2-[3-[4-(5-chloropyrimidin-2-yl)piperazin-1-yl]-3-oxopropoxy]ethoxy)-2,3-dihydropyridazin-3-one]	< 100 nM
O=C(CCOCCOc1cn[nH]c(=O)c1Br)N1CCN(c2ncc(C(F)(F)F)cn2)CC1 [Example 548, 4-Bromo-5-[2-(3-oxo-3-[4-[5-(trifluoromethyl)pyrimidin-2-yl]piperazin-1-yl]propoxy)ethoxy]-2,3-dihydropyridazin-3-one]	< 100 nM
Cc1c(OCCOCCC(=O)N2CCN(c3ncc(Cl)cn3)CC2)cn[nH]c1=O [Example 549, 5-(2-[3-[4-(5-Chloropyrimidin-2-yl)piperazin-1-yl]-3-oxopropoxy]ethoxy)-4-methyl-2,3-dihydropyridazin-3-one]	< 100 nM
Cc1c(OCCOCCC(=O)N2CCN(c3ncc(C(F)(F)F)cn3)CC2)cn[nH]c1=O [Example 550, 4-Methyl-5-[2-(3-oxo-3-[4-[5-(trifluoromethyl)pyrimidin-2-yl]piperazin-1-yl]propoxy)ethoxy]-2,3-dihydropyridazin-3-one]	< 100 nM
N#Cc1c(OCCOCCC(=O)N2CCN(c3ncc(C(F)(F)F)cn3)CC2)cn[nH]c1=O [Example 553, 3-Oxo-5-[2-(3-oxo-3-[4-[5-(trifluoromethyl)pyrimidin-2-yl]piperazin-1-yl]propoxy)ethoxy]-2,3-dihydropyridazine-4-carbonitrile]	< 100 nM
N#Cc1ccc(N2CCN(C(=O)CCOCCOc3cn[nH]c(=O)c3Br)CC2)nc1 [Example 555, 6-[4-(3-[2-[(5-Bromo-6-oxo-1,6-dihydropyridazin-4-yl)oxy]ethoxy]propanoyl)piperazin-1-yl]pyridine-3-carbonitrile]	< 100 nM
COC[C@H](COCCC(=O)N1CCN(c2ncc(Cl)cn2)CC1)Nc1cn[nH]c(=O)c1C(F)(F)F [Example 557, 5-[[(2R)-1-[3-[4-(5-Chloropyrimidin-2-yl)piperazin-1-yl]-3-oxopropoxy]-3-methoxypropan-2-yl]amino]-4-(trifluoromethyl)-2,3-dihydropyridazin-3-one]	< 100 nM
COC[C@@H](COCCC(=O)N1CCN(c2ncc(Cl)cn2)CC1)Nc1cn[nH]c(=O)c1C(F)(F)F [Example 558, 5-[[(2S)-1-[3-[4-(5-Chloropyrimidin-2-yl)piperazin-1-yl]-3-oxopropoxy]-3-methoxypropan-2-yl]amino]-4-(trifluoromethyl)-2,3-dihydropyridazin-3-one]	< 100 nM
C[C@@H](COCCC(=O)N1CCN(c2ccc(Cl)cn2)CC1)Nc1cn[nH]c(=O)c1C(F)(F)F [Example 563, 5-[[(2S)-1-[3-[4-(5-Chloropyridin-2-yl)piperazin-1-yl]-3-oxopropoxy]propan-2-yl]amino]-4-(trifluoromethyl)-2,3-dihydropyridazin-3-one]	< 100 nM
C[C@@H](COCCC(=O)N1CCN(c2ccc(C(F)(F)F)cn2)CC1)Nc1cn[nH]c(=O)c1C(F)(F)F [Example 564, 5-[[(2S)-1-(3-Oxo-3-[4-[5-(trifluoromethyl)pyridin-2-yl]piperazin-1-yl]propoxy)propan-2-yl]amino]-4-(trifluoromethyl)-2,3-dihydropyridazin-3-one]	< 100 nM

Continued, values first:

IC50	Compound
100 to 1000 nM	C[C@@H](COc1cn[nH]c(=O)c1C(F)(F)F)OCCC(=O)N1CCN(c2ccc(C#N)cn2)CC1 [Example 530C, 6-[4-(3-[[(2S)-1-[[6-Oxo-5-(trifluoromethyl)-1,6-dihydropyridazin-4-yl]oxy]propan-2-yl]oxy]propanoyl)piperazin-1-yl]pyridine-3-carbonitrile]
< 100 nM	N#Cc1ccc(N2CCN(C(=O)CCO[C@@H]3COC[C@@H]3Oc3cn[nH]c(=O)c3C(F)(F)F)CC2)nc1 [Example 531, 6-[4-(3-[[(3R,4S)-4-[[6-Oxo-5-(trifluoromethyl)-1,6-dihydropyridazin-4-yl]oxy]oxolan-3-yl]oxy]propanoyl)piperazin-1-yl]pyridine-3-carbonitrile]
< 100 nM	O=C(CCOCCOc1cn[nH]c(=O)c1C(F)(F)F)N1CCN(c2ncc(C(F)(F)F)cn2)CC1 [Example 534, 5-[2-(3-Oxo-3-[4-[5-(trifluoromethyl)pyrimidin-2-yl]piperazin-1-yl]propoxy)ethoxy]-4-(trifluoromethyl)-2,3-dihydropyridazin-3-one]
< 100 nM	O=C(CCOCCOc1cn[nH]c(=O)c1C(F)(F)F)N1CCN(c2ccc(Cl)cn2)CC1 [Example 535, 5-(2-[3-[4-(5-Chloropyridin-2-yl)piperazin-1-yl]-3-oxopropoxy]ethoxy)-4-(trifluoromethyl)-2,3-dihydropyridazin-3-one]
< 100 nM	O=C(CCOCCOc1cn[nH]c(=O)c1C(F)(F)F)N1CCN(c2ccc(C(F)(F)F)cn2)CC1 [Example 536, 5-[2-(3-Oxo-3-[4-[5-(trifluoromethyl)pyridin-2-yl]piperazin-1-yl]propoxy)ethoxy]-4-(trifluoromethyl)-2,3-dihydroyridazin-3-one]
100 to 1000 nM	N#Cc1ccc(N2CCN(C(=O)CCOC3Cc4ccccc4C3Oc3cn[nH]c(=O)c3C(F)(F)F)CC2)nc1 (centres unmarked) [Example 540, 6-(4-[3-[(1-[[6-Oxo-5-(trifluoromethyl)-1,6-dihydropyridazin-4-yl]oxy]-2,3-dihydro-1H-inden-2-yl)oxy]propanoyl]piperazin-1-yl)pyridine-3-carbonitrile]
< 100 nM	CN(C)CC(COCCC(=O)N1CCN(c2ccc(C#N)cn2)CC1)Oc1cn[nH]c(=O)c1C(F)(F)F (centres unmarked) [Example 542, 6-(4-[3-[3-(Dimethylamino)-2-[[6-oxo-5-(trifluoromethyl)-1,6-dihydropyridazin-4-yl]oxy]propoxy]propanoyl]piperazin-1-yl)pyridine-3-carbonitrile]
< 100 nM	Cc1c(OCCOCCC(=O)N2CCN(c3ccc(C#N)cn3)CC2)cn[nH]c1=O [Example 551, 6-[4-(3-[2-[(5-Methyl-6-oxo-1,6-dihydropyridazin-4-yl)oxy]ethoxy]propanoyl)piperazin-1-yl]pyridine-3-carbonitrile]
< 100 nM	N#Cc1c(OCCOCCC(=O)N2CCN(c3ncc(Cl)cn3)CC2)cn[nH]c1=O [Example 552, 5-(2-[3-[4-(5-Chloropyrimidin-2-yl)piperazin-1-yl]-3-oxopropoxy]ethoxy)-3-oxo-2,3-dihydropyridazine-4-carbonitrile]
< 100 nM	N#Cc1ccc(N2CCN(C(=O)CCOCCOc3cn[nH]c(=O)c3C#N)CC2)nc1 [Example 554, 5-(2-[3-[4-(5-Cyanopyridin-2-yl)piperazin-1-yl]-3-oxopropoxy]ethoxy)-3-oxo-2,3-dihydropyridazine-4-carbonitrile]
100 to 1000 nM	C[C@H](COCCC(=O)N1CCN(c2ncc(Cl)cn2)CC1)Nc1cn[nH]c(=O)c1C(F)(F)F [Example 556, 5-[[(2R)-1-[3-[4-(5-Chloropyrimidin-2-yl)piperazin-1-yl]-3-oxopropoxy]propan-2-yl]amino]-4-(trifluoromethyl)-2,3-dihydropyridazin-3-one]
< 100 nM	COC[C@@H](COCCC(=O)N1CCN(c2ncc(C(F)(F)F)cn2)CC1)Nc1cn[nH]c(=O)c1C(F)(F)F [Example 559, 5-[[(2S)-1-Methoxy-3-(3-oxo-3-[4-[5-(trifluoromethyl)pyrimidin-2-yl]piperazin-1-yl]propoxy)propan-2-yl]amino]-4-(trifluoromethyl)-2,3-dihydropyridazin-3-one]
< 100 nM	C[C@@H](COCCC(=O)N1CCN(c2ncc(Cl)cn2)CC1)Nc1cn[nH]c(=O)c1C(F)(F)F [Example 562, 5-[[(2S)-1-[3-[4-(5-Chloropyrimidin-2-yl)piperazin-1-yl]-3-oxopropoxy]propan-2-yl]amino]-4-(trifluoromethyl)-2,3-dihydropyridazin-3-one]
< 100 nM	O=C(C[C@H]1CC[C@@H](CNc2cn[nH]c(=O)c2C(F)(F)F)O1)N1CCN(c2ncc(C(F)(F)F)cn2)CC1 [Example 568 Isomer C, 5-((((2S,5R)-5-(2-Oxo-2-(4-(5-(trifluoromethyl)pyrimidin-2-yl)piperazin-1-yl)ethyl)tetrahydrofuran-2-yl)methyl)amino)-4-(trifluoromethyl)pyridazin-3(2H)-one]
